Experiments:
Thermal stability (TGA) = type: physicochemical; details: for Temperature range of desolvation event (TGA): TGA 20 to 235° C., 10 K/min, nitrogen purge, event = loss of EtOH, H2O or lactic acid
Protocol: Each sample (approximately 4±0.0005 mg using a UM3 ultramicrobalance, Mettler, Greifensee, CH) was weighed into an unsealed platinum sample holder (50 microlitre). The samples were heated from 20 to 235° C. at a rate of 10 K/min. Nitrogen (sample purge rate 20 mL/min and balance purge rate 40 mL/min)) was used as purge gas.

Thermal stability (DSC) = type: physicochemical; details: for Tpeak of desolvation event (first endothermic peak maximum, DSC): DSC 20 to 235° C., dry nitrogen purge, event = loss of EtOH, H2O or lactic acid; for Tpeak of desolvation event (first endothermic peak maximum, DSC) / Onset temperature of decomposition peak (DSC) / Peak maximum temperature of decomposition peak (DSC): heating rate 20 K/min; for Stability against temperature stress compared to levothyroxine sodium pentahydrate (DSC conclusion): DSC analysis; for Onset temperature of decomposition peak (DSC) / Peak maximum temperature of decomposition peak (DSC): co-crystal: second endotherm, concomitant melting and decomposition, sodium pentahydrate: exotherm
Protocol: Each sample (approximately 4±0.0005 mg using a UM3 ultramicrobalance, Mettler, Greifensee, CH) was weighed into an aluminum pan (25 microlitre) and sealed with a cover, which was perforated by a needle. Dry nitrogen was used as the purge gas (purge rate: 20 mL/min). The samples were heated from 20 to 235° C. at a heating rate of 20 K/min.

[1] = Hamad et al., Pharm Dev Technol 2015; 20(3): 314-319; cited from earlier work
[2] = Chemical stability: exposure to ambient air at 40° C. and 0% RH, followed by 1H-NMR
[3] = TGA 10 K/min, up to about 120° C.
[4] = listed as L-tartaric acid L-lactic acid co-crystal
[5] = listed as L-tartaric acid co-crystal

Row | Structure (SMILES) | Mass loss up to about 120° C. (TGA) (Thermal stability (TGA); [3]) | Temperature range of desolvation event (TGA) (Thermal stability (TGA)) | Temperature range of desolvation event (TGA) (Thermal stability (TGA); [4]) | Tpeak of desolvation event (first endothermic peak maximum, DSC) (Thermal stability (DSC)) | Tpeak of desolvation event (first endothermic peak maximum, DSC) (Thermal stability (DSC); [4]) [°C] | Stability against temperature stress compared to levothyroxine sodium pentahydrate (DSC conclusion) (Thermal stability (DSC)) | Chemical degradation on exposure to dry conditions in the presence of molecular oxygen [1] | Mass loss up to about 120° C. (TGA), in words (Thermal stability (TGA); [3]) | Onset temperature of decomposition peak (DSC) (Thermal stability (DSC)) | Peak maximum temperature of decomposition peak (DSC) (Thermal stability (DSC)) | Chemical stability under the applied stress conditions (1H-NMR) ([2]; ambient air (oxygen about 20.9 volume %), 6 weeks, spectra at start, 3 and 6 weeks) | 1H-NMR spectrum change after 3 weeks ([2]; ambient air, 3 weeks) | 1H-NMR spectrum change after 6 weeks ([2]; ambient air, 6 weeks) | Temperature range of desolvation event (TGA) (Thermal stability (TGA); [5]) | Tpeak of desolvation event (first endothermic peak maximum, DSC) (Thermal stability (DSC); [5]) [°C]
1 | N[C@@H](Cc1cc(I)c(Oc2cc(I)c(O)c(I)c2)c(I)c1)C(=O)O [levothyroxine L-tartaric acid L-lactic acid co-crystal] | about 0.5 weight-% | 150 to 170 °C | ~150-170 °C | about 162 °C | 162 | more stabe against temperature stress | – | – | – | – | – | – | – | – | –
2 | N[C@@H](Cc1cc(I)c(Oc2cc(I)c(O)c(I)c2)c(I)c1)C(=O)[O-].[Na+] [levothyroxine sodium pentahydrate, Levothyroxine sodium pentahydrate, reference compound] | – | ~30-120 °C | – | – | – | – | significant degradation | significant weight loss | about 202 °C | about 205 °C | chemically unstable | additional peaks become evident | become even more intense | – | –
3 | N[C@@H](Cc1cc(I)c(Oc2cc(I)c(O)c(I)c2)c(I)c1)C(=O)O [levothyroxine L-tartaric acid co-crystal] | – | 150 to 170 °C | – | about 165 °C | – | more stable against temperature stress | – | only a slight mass loss | about 180 °C | about 197 °C | – | – | – | ~150-170 °C | 165
